Assay type in all cases: functional, cell-based
Assay [1] has as its system HCT-116. Description: Antiproliferative activity against human HCT-116 cells assessed as inhibition of cell growth incubated for 48 hrs by CCK-8 assay. Particulars: Homo sapiens, HCT-116, 48 h. (Formazan colour is commonly taken as a measure of viable cells.)
Assay [2] has as its system HeLa. As to the kind of experiment: Antiproliferative activity against human HeLa cells assessed as inhibition of cell growth incubated for 48 hrs by CCK-8 assay. Conditions: Homo sapiens, HeLa, 48 h.
Assay [3] deals with MCF7. Description: Antiproliferative activity against human MCF7 cells assessed as inhibition of cell growth incubated for 48 hrs by CCK-8 assay. Conditions: Homo sapiens, MCF7, 48 h.

The structures appear in SMILES notation. Bounds are passed on as bounds.

Broadly, the IC50 is the concentration at which inhibition is half-maximal. In the case of `CCOC(=O)C[C@H]1C[S+]([O-])C[C@]1(C(=O)OCC)n1cnc2c(Cl)nc(Cl)nc21` (stereo not given in full), the figures for the IC50 in assay [1], in assay [2] and in assay [3] were 17.1 µM, 10.5 µM and 25.9 µM, respectively.

For `CCOC(=O)C[C@H]1CS(=O)(=O)C[C@]1(C(=O)OCC)n1cnc2c(Cl)nc(Cl)nc21`, the half-inhibitory concentration (IC50) in assay [1] is 11.2 µM; in assay [2] it was 7.67 µM; in assay [3], 16.2 µM.

For `CCOC(=O)C[C@H]1CSC[C@]1(C(=O)OC)n1cnc2c(Cl)ncnc21` (racemic), the results for the IC50 in assay [1], in assay [2] and in assay [3] were 19.2 µM, 11.6 µM and more than 50 µM, respectively.

Turning to `CCOC(=O)C[C@@H]1CSC[C@]1(C(=O)OCC)n1cnc2c(N3CCCC3)ncnc21` (racemic), the half-maximal inhibitory concentration (IC50) in assay [1], in assay [2] and in assay [3] was more than 50 µM each time.

On to `CCOC(=O)C[C@H]1CSC[C@]1(C(=O)OCC)n1cnc2c(N3CCCC3)ncnc21` (racemic), for which the half-maximal inhibitory concentration (IC50) in assay [1], in assay [2] and in assay [3] was more than 50 µM each time.

With `CCOC(=O)C[C@@H]1CSC[C@]1(C(=O)OCC)n1cnc2c(OC)ncnc21` (racemic), the half-inhibitory concentration (IC50) in assay [1], in assay [2] and in assay [3] was more than 50 µM throughout.

As for `CCOC(=O)C[C@@H]1CSC[C@]1(C(=O)OCC)n1cnc2c(-c3ccccc3)ncnc21` (racemic), the half-inhibitory concentration (IC50) in assay [1] amounted to 25.1 µM; in assay [2], 42.9 µM; in assay [3], 19.4 µM.

With `CCOC(=O)C[C@H]1CSC[C@]1(C(=O)OCC)n1cnc2c(OC)ncnc21` (racemic), the half-inhibitory concentration (IC50) in assay [1], in assay [2] and in assay [3] was more than 50 µM in each case.

With `CCOC(=O)C[C@@H]1CSC[C@]1(C(=O)OCC)n1cnc2c(N3CCCCC3)ncnc21` (racemic), the IC50 was 32 µM in assay [1], more than 50 µM in assay [2] and 42.2 µM in assay [3].

For `CCOC(=O)C[C@@H]1CSC[C@]1(C(=O)OCC)n1cnc2c(N(C)C)ncnc21` (racemic), the IC50 in assay [1], in assay [2] and in assay [3] was more than 50 µM throughout.

For `CCOC(=O)C[C@H]1CSC[C@]1(C(=O)OCC)n1cnc2cnc(Cl)nc21` (racemic), the IC50 in assay [1], in assay [2] and in assay [3] was more than 50 µM throughout.

Consider `CCCSc1ncnc2c1ncn2[C@@]1(C(=O)OCC)CSC[C@H]1CC(=O)OCC` (racemic), for which the IC50 in assay [1] was 38.5 µM; in assay [2], more than 50 µM; in assay [3], 23.5 µM.

Take `CCOC(=O)C[C@@H]1CSC[C@]1(C(=O)OCC)n1cnc2c(OCc3ccccc3)ncnc21` (racemic): the IC50 in assay [1], in assay [2] and in assay [3] was more than 50 µM each time.

For `CCOC(=O)C[C@H]1CSC[C@]1(C(=O)OCC)n1cnc2c(-c3ccccc3)ncnc21` (racemic), the IC50 in assay [1] is 17.3 µM; in assay [2] it was 26.2 µM; in assay [3], more than 50 µM.

As to `CCOC(=O)C[C@H]1CSC[C@]1(C(=O)OCC)n1cnc2c(OCC)ncnc21` (racemic), the half-inhibitory concentration (IC50) in assay [1], in assay [2] and in assay [3] was more than 50 µM in each case.

On to `CCOC(=O)C[C@H]1CSC[C@]1(C(=O)OCC)n1cnc2c(N(CC)CC)ncnc21` (racemic), for which the IC50 in assay [1], in assay [2] and in assay [3] was more than 50 µM in each case.

For `CCOC(=O)C[C@H]1CSC[C@]1(C(=O)OCC)n1cnc2c(Br)ncnc21` (racemic), the IC50 in assay [1] amounted to 30.1 µM; in assay [2], 14.4 µM; in assay [3] it was 19.4 µM.

As for `CCOC(=O)C[C@H]1CSC[C@]1(C(=O)OCC)n1cnc2c(N(C)C)ncnc21` (racemic), the IC50 in assay [1], in assay [2] and in assay [3] was more than 50 µM throughout.

In the case of `CCOC(=O)C[C@H]1CSC[C@]1(C(=O)OCC)n1cnc2c(Cl)nc(F)nc21` (racemic), the IC50 was found to be 11 µM in assay [1], 8.8 µM in assay [2] and 22.9 µM in assay [3].

Take `CCOC(=O)C[C@H]1CSC[C@]1(C(=O)OC(C)C)n1cnc2c(Cl)ncnc21` (racemic): the IC50 in assay [1] was determined as 14.7 µM; in assay [2] it was 9.99 µM; in assay [3] it was 13 µM.

Regarding `CCOC(=O)C[C@H]1CSC[C@]1(C(=O)OCC)n1cnc2c(Cl)ncnc21` (racemic), the concentration for half-maximal inhibition (IC50) was determined as 15.5 µM in assay [1], 6.81 µM in assay [2] and 12 µM in assay [3].

Take `CCOC(=O)C[C@@H]1CSC[C@]1(C(=O)OCC)n1cnc2c(Cl)ncnc21` (racemic): the IC50 in assay [1] came to 19.4 µM; in assay [2], 12.5 µM; in assay [3], 43.5 µM.

`CCOC(=O)C[C@H]1CSC[C@]1(C(=O)OCC)n1cnc2cncnc21` (racemic): the IC50 in assay [1], in assay [2] and in assay [3] was more than 50 µM in each case.

With `CCOC(=O)C[C@@H]1CSC[C@]1(C(=O)OCC)n1cnc2c(OCC)ncnc21` (racemic), the 50% inhibitory concentration (IC50) in assay [1] was 19.8 µM; in assay [2] it was more than 50 µM; in assay [3], more than 50 µM.

On to `CCCSc1ncnc2c1ncn2[C@@]1(C(=O)OCC)CSC[C@@H]1CC(=O)OCC` (racemic), for which the results for the IC50 in assay [1], in assay [2] and in assay [3] were 25.9 µM, 37.2 µM and 30.9 µM, respectively.

Consider `CCOC(=O)C[C@H]1CSC[C@]1(C(=O)OCC)n1cnc2c(N3CCOCC3)ncnc21` (racemic), for which the IC50 in assay [1], in assay [2] and in assay [3] was more than 50 µM throughout.

For the compound `CCOC(=O)C[C@@H]1CSC[C@]1(C(=O)OCC)n1cnc2c(N3CCCCC3)nc(Cl)nc21` (racemic), the IC50 in assay [1] is more than 50 µM; in assay [2], more than 50 µM; in assay [3], 34 µM.

Consider `CCOC(=O)C[C@H]1CSC[C@]1(C(=O)OCC)n1cnc2c(OCc3ccccc3)ncnc21` (racemic), for which the IC50 in assay [1] came to 13.2 µM; in assay [2], 13.7 µM; in assay [3] it was 12.7 µM.

Take `CCOC(=O)C[C@@H]1CSC[C@]1(C(=O)OCC)n1cnc2c(Br)ncnc21` (racemic): the values for the IC50 in assay [1], in assay [2] and in assay [3] were more than 50 µM, 49.6 µM and more than 50 µM, respectively.

Regarding `CCOC(=O)C[C@H]1CSC[C@]1(C(=O)OCC)n1cnc2c(N3CCCC3)nc(Cl)nc21` (racemic), the half-maximal inhibitory concentration (IC50) in assay [1] is 46.6 µM; in assay [2], more than 50 µM; in assay [3], 38.3 µM.

With `CCOC(=O)C[C@H]1CSC[C@]1(C(=O)OCC)n1cnc2c(N3CCCCC3)nc(Cl)nc21` (racemic), the figures for the IC50 in assay [1], in assay [2] and in assay [3] were 22.6 µM, 22.4 µM and more than 50 µM, respectively.

On to `CCOC(=O)C[C@@H]1CSC[C@]1(C(=O)OCC)n1cnc2c(N(CC)CC)ncnc21` (racemic), for which the IC50 is 41.5 µM in assay [1], more than 50 µM in assay [2] and more than 50 µM in assay [3].

As for `CCOC(=O)C[C@@H]1CSC[C@]1(C(=O)OCC)n1cnc2c(N3CCCC3)nc(Cl)nc21` (racemic), the IC50 is 34 µM in assay [1], 38.3 µM in assay [2] and more than 50 µM in assay [3].

With `CCOC(=O)C[C@@H]1CSC[C@]1(C(=O)OCC)n1cnc2c(N3CCOCC3)ncnc21` (racemic), the concentration for half-maximal inhibition (IC50) in assay [1], in assay [2] and in assay [3] was more than 50 µM in each case.

For the compound `CCOC(=O)C[C@H]1CSC[C@]1(C(=O)OCC)n1cnc2c(N3CCCCC3)ncnc21` (racemic), the IC50 in assay [1] is 22.8 µM; in assay [2], more than 50 µM; in assay [3], 23.8 µM.
